Where two headings read alike, the source gives them in different places.
What was measured:
[1] = system: K562 (human chronic myeloblastic leukemia); test: In vitro cytotoxic activity, Calcein AM, three days; format: cell-based; settings: read-out: K-562 IC50
Method: (§1) We have been using the following cell lines: HELA (human cervical carcinoma), MCF7 (human breast adenocarcinoma), NIH 3T3 (mouse fibroblasts), HOS (human osteogenic sarcoma), HL 60 (human promyelocytic leukemia), G 361 (human malignant melanoma), K562 (human chronic myeloblastic leukemia), CEM (human lymphoblastoid leukaemia). Tested drugs were added to the cell cultures in six different concentration and kept at 37° C. and 5% CO2 for three days. All cell lines were grown in DMBM medium (Gibco BRL) supplemented with 10% (v/v) fetal bovine serum and L-glutamine and maintained at 37° C. in a humidified atmosphere with 5% CO2. 10^4 cells were seeded into each well of 96 well plate, allowed to stabilize for at least 2 h and then tested compounds were added at various concentrations ranging from 200 to 0.2 μM in triplicates. Three days after drug addition Calcein AM solution (Molecular Probes) was added and let to enter the cells for 1 hour. Fluorescence of viable cells was quantified employing Fluoroskan Ascent (Microsystems).

[2] = system: MCF7 (human breast adenocarcinoma); test: as above; format: cell-based
Method: as §1

[3] = target: T1, CDK1 (p34^cdc2, cyclin B) (Homo sapiens, UniProt P06493); test: CDK inhibition assay, p34^cdc2 kinase, histone H1 phosphorylation; format: biochemical; settings: 15 μM ATP, histone H1, 30° C.
T1 construct: made in house; host or cells: Sf9 insect cells (baculovirus co-infection)
T1 sequence (P06493 whole entry, species assumed): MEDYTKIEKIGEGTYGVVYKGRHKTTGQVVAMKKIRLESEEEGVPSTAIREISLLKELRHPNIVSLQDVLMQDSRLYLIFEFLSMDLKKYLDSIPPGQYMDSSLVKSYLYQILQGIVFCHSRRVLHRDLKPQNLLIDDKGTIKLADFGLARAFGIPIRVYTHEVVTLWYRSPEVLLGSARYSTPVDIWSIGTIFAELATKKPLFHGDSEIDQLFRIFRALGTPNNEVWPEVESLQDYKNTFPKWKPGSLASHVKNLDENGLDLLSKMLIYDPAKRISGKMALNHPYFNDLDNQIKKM
T1 sequence (P14635 whole entry partner, species assumed): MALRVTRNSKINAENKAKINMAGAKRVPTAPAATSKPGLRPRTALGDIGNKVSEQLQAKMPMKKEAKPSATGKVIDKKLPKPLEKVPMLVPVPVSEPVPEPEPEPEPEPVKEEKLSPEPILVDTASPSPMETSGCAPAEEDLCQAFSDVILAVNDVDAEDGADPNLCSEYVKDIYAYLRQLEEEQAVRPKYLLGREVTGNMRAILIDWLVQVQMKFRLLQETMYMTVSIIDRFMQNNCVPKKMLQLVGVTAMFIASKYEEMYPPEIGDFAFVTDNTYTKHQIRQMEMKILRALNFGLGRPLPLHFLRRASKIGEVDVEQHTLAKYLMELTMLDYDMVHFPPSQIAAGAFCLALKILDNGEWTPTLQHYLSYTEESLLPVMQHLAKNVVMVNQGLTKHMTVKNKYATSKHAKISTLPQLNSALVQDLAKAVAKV
Method: The controls contain suitable dilutions of DMSO.
2-glycerolphosphate, 1 mM NaF, 1 mM DTT

[4] = target: CDK2 (p33^cdk2, cyclin E) (Homo sapiens, UniProt P24941); test: CDK inhibition assay, p33^cdk2 kinase, histone H1 phosphorylation;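 further: Baculovirus-expressed kinase/cyclin complex from Sf9 cell extract, 10 min at 30 °C, phosphoproteins separated by SDS gel and quantified by image analysis, activity relative to DMSO control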
Method: Cyclin-dependent kinases (p34^cdc2, p33^cdk2) and cyclins (cyclin B, E) are produced in Sf9 insect cells coinfected with appropriate baculoviral constructs. The cells are harvested 68-72 hrs post infection in lysis buffer for 30 min on ice and the soluble fraction is recovered by centrifugation at 14.000 g for 10 min. The protein extract is stored at −80° C.
Lysis buffer: 50mM Tris pH 7.4, 150mM NaCl, 5 mM EDTA, 20 mM NaF, 1% Tween, 1 mM DTT, 0.1 mM PMSF, leupeptine, aprotonine.
To carry out experiments on kinetics under linear conditions, the final point test system for kinase activity measurement is used. The kinase is added to reaction mixture in such a way as to obtain linear activity with respect to the concentration of enzyme and with respect to time.
Kinase activity is determined at 30° C. in the kinase buffer.
Tested compounds are usually dissolved to 100 mM solutions in DMSO, final concentration of DMSO in reaction mixture never exceeds 1%. The controls contain suitable dilutions of DMSO.
After 10 min, addition 3×SDS sample buffer stops the incubations. Phosphorylated proteins are separated electrophoretically using 10% SDS polyacrylamide gel. The measurement of kinase activity is done using digital image analysis.
The kinase activity is expressed as a percentage of maximum activity, the apparent inhibition constants are determined by graphic analysis.
Kinase buffer: 50 mM Hepes pH 7.4, 10 mM MgCl2, 5 mM EGTA, 10 mM

[5] = system: Cytokinin-dependent tobacco callus Nicotiana tabacum L. cv. Wisconsins 38; test: Tobacco callus bioassay for cytotoxicity (herbicidal activity); format: cell-based; settings: Nicotiana tabacum, 672 h, four weeks
Method: The compounds to be tested were dissolved in dimethylsulfoxide (DMSO) and the solution brought up to 10^−3 M with distilled water. […] Cytokinin-dependent tobacco callus Nicotiana tabacum L. cv. […] Subcultivation was carried out every three weeks. Fourteen days before the bioassay, the callus tissue was transferred to the media without 6-benzylaminopurine. Compounds were tested with two different concentrations of 6-benzylaminopurine (10^−5 M and 10^−6 M). Inhibitory growth activity was determined from the increase in fresh callus weight after four weeks of cultivation. Five replicates were prepared for each concentration tested and the entire test was repeated at least twice.

[6] = read-out: IC50, growth of tobacco callus, 10^−5 M BAP, 10^−5 M 6-benzylaminopurine
[7] = 10^−6 M 6-benzylaminopurine, read-out: IC50, growth of tobacco callus, 10^−6 M BAP
[8] = read-out: CDK2 IC50, 15 μM ATP, histone H1, 30° C.

SMILES | IC50 [1] [µM] | IC50 [2] [µM] | IC50 [3] [µM] | IC50 ([1]; Homo sapiens, K562, 72 h) [µM] | IC50 ([2]; Homo sapiens, MCF7, 72 h) [µM] | IC50 [4] [µM] | other results
COc1cccc(CNc2ncnc3c(C(C)C)n[nH]c23)c1O | 0.8 | 0.6 | – | – | – | – | –
COc1ccc(CNc2ncnc3c(C(C)C)n[nH]c23)c(O)c1 | 0.5 | 0.2 | – | – | – | – | –
COc1ccc(O)c(CNc2ncnc3c(C(C)C)n[nH]c23)c1 | 1.2 | 0.9 | – | – | – | – | –
CC(C)c1n[nH]c2c(NCc3ccccc3N)ncnc12 [2-aminobenzylamino / isopropyl] | 2.1 | 0.8 | – | – | – | – | –
CCc1n[nH]c2c(NCc3ccccc3Br)ncnc12 [2-bromobenzylamino / ethyl] | 60 | 54 | – | – | – | – | –
CC(C)c1n[nH]c2c(NCc3ccccc3Br)ncnc12 [2-bromobenzylamino / isopropyl, 7-(2-bromobenzyl)amino-3-isopropylpyrazolo[4,3-d]pyrimidine] | – | – | 7 | 57 | 42 | 9 | –
Cc1n[nH]c2c(NCc3ccccc3Br)ncnc12 [2-bromobenzylamino / methyl] | 68 | 56 | – | – | – | – | –
CCc1n[nH]c2c(NCc3ccccc3O)ncnc12 [2-hydroxybenzylamino / ethyl] | – | – | 6.2 | 51 | 63 | 7 | –
CC(C)c1n[nH]c2c(NCc3ccccc3O)ncnc12 [2-hydroxybenzylamino / isopropyl, 7-(2-hydroxybenzyl)amino-3-isopropylpyrazolo[4,3-d]pyrimidine] | – | – | 0.4 | 50 | 63 | 0.27 | –
Cc1n[nH]c2c(NCc3ccccc3O)ncnc12 [2-hydroxybenzylamino / methyl] | – | – | 4 | 55 | 67 | 5.2 | –
CC(C)c1n[nH]c2c(Nc3ccc(Cl)c(N)c3)ncnc12 [3-amino-4-chloroanilino / isopropyl] | – | – | 2.9 | 0.3 | 0.2 | 3 | –
CC(C)c1n[nH]c2c(Nc3ccc(O)c(C(=O)O)c3)ncnc12 [3-carboxy-4-hydroxyanilino / isopropyl] | – | – | 3.1 | 25 | 12 | 4.2 | –
CC(C)c1n[nH]c2c(Nc3ccc(N)c(Cl)c3)ncnc12 [3-chloro-4-aminoanilino / isopropyl] | – | – | 2.9 | 13 | 12 | 3 | –
CC(C)c1n[nH]c2c(Nc3ccc(C(=O)O)c(Cl)c3)ncnc12 [3-chloro-4-carboxyanilino / isopropyl] | – | – | 2.5 | 69 | 46 | 2.8 | –
CC(C)c1n[nH]c2c(Nc3cc(N)cc(Cl)c3)ncnc12 [3-chloro-5-aminoanilino / isopropyl] | – | – | 6.1 | 35 | 29 | 5.8 | –
CCc1n[nH]c2c(Nc3cccc(Cl)c3)ncnc12 [3-chloroanilino / ethyl] | – | – | 24 | 28 | 19 | 18 | –
CCc1n[nH]c2c(NCc3ccc(OC)c(O)c3)ncnc12 [3-hydroxy-4-methoxybenzylamino / ethyl] | 72 | 52 | – | – | – | – | –
COc1ccc(CNc2ncnc3c(C)n[nH]c23)cc1O [3-hydroxy-4-methoxybenzylamino / methyl] | 79 | 58 | – | – | – | – | –
CCc1n[nH]c2c(NCc3cccc(O)c3)ncnc12 [3-hydroxybenzylamino / ethyl] | – | – | 6 | 132 | 111 | 3.2 | –
Cc1n[nH]c2c(NCc3cccc(O)c3)ncnc12 [3-hydroxybenzylamino / methyl] | – | – | 5.5 | 143 | 119 | 7.2 | –
CCc1n[nH]c2c(NC3CCC(N)CC3)ncnc12 (centres unmarked) [4-aminocyclohexylamino / ethyl] | 110 | 71 | – | – | – | – | –
Cc1n[nH]c2c(NC3CCC(N)CC3)ncnc12 (centres unmarked) [4-aminocyclohexylamino / methyl] | 115 | 75 | – | – | – | – | –
CC(C)c1n[nH]c2c(Nc3ccc(Br)cc3)ncnc12 [4-bromoanilino / isopropyl] | – | – | 1.7 | 7 | 5 | 1.9 | –

SMILES | IC50 [1] [µM] | IC50 [2] [µM] | IC50 [3] [µM] | IC50 ([1]; Homo sapiens, K562, 72 h) [µM] | IC50 ([2]; Homo sapiens, MCF7, 72 h) [µM] | IC50 [4] [µM] | other results
CC(C)c1n[nH]c2c(Nc3ccc(Cl)cc3)ncnc12 [4-chloroanilino / isopropyl] | – | – | 2.1 | 4 | 3 | 3.1 | –
CC(C)c1n[nH]c2c(NCc3ccc(Cl)cc3)ncnc12 [4-chlorobenzylamino / isopropyl] | – | – | 1.8 | – | – | 1.1 | IC50 [5, 6]: 12.1 µM; IC50 [5, 7]: 4.7 µM
CC(C)c1n[nH]c2c(NCc3ccc(O)cc3)ncnc12 [4-hydroxybenzylamino / isopropyl, 7-(4-hydroxybenzyl)amino-3-isopropylpyrazolo[4,3-d]pyrimidine] | – | – | 1.8 | > 167 | 152 | 0.2 | –
Cc1n[nH]c2c(NCc3ccc(O)cc3)ncnc12 [4-hydroxybenzylamino / methyl] | > 167 | > 167 | – | – | – | – | –
CCc1n[nH]c2c(NCc3ccc(OC)cc3)ncnc12 [4-methoxybenzylamino / ethyl] | 48 | 31 | – | – | – | – | –
COc1ccc(CNc2ncnc3c(C)n[nH]c23)cc1 [4-methoxybenzylamino / methyl] | 53 | 35 | – | – | – | – | –
COc1ccc(CNc2ncnc3c(C(C)C)n[nH]c23)cc1O [7-(3-hydroxy-4-methoxybenzyl)amino-3-isopropylpyrazolo[4,3d]pyrimidine] | 68 | 45 | 0.9 | – | – | – | IC50 [4, 8]: 0.2 µM
CC(C)c1n[nH]c2c(NC3CCC(N)CC3)ncnc12 (centres unmarked) [(4-aminocyclohexyl)amino / isopropyl] | 107 | 68 | 80 | – | – | – | IC50 [4, 8]: 70 µM
Cn1cnc2c(NCc3ccccc3)nc(NCCO)nc21 [Olomoucine, reference compound] | – | – | – | > 167 | 132 | – | IC50 [5, 6]: > 50 µM; IC50 [5, 7]: > 50 µM
CCc1n[nH]c2c(NCc3ccccc3)ncnc12 [benzylamino / ethyl] | – | – | 12 | 81 | 62 | 11 | –
Cc1n[nH]c2c(NCc3ccccc3)ncnc12 [benzylamino / methyl] | 29 | 67 | – | – | – | – | –
CCc1n[nH]c2c(NC3CCC3)ncnc12 [cyclobutylamino / ethyl] | – | – | 27 | 94 | 82 | 25 | –
Cc1n[nH]c2c(NC3CCC3)ncnc12 [cyclobutylamino / methyl] | – | – | 35 | 101 | 89 | 28 | –
CCc1n[nH]c2c(NC3CCCCC3)ncnc12 [cyclohexylamino / ethyl] | – | – | 39 | – | – | 42 | –
Cc1n[nH]c2c(NC3CCCCC3)ncnc12 [cyclohexylamino / methyl] | – | – | 34 | – | – | 32 | –
CCc1n[nH]c2c(NC3CCCC3)ncnc12 [cyclopentylamino / ethyl] | – | – | 32 | – | – | 32 | –
CC(C)c1n[nH]c2c(NC3CCCC3)ncnc12 [cyclopentylamino / isopropyl] | – | – | 18 | – | – | 20 | IC50 [5, 6]: 15.6 µM; IC50 [5, 7]: 8.4 µM
Cc1n[nH]c2c(NC3CCCC3)ncnc12 [cyclopentylamino / methyl] | – | – | 29 | – | – | 46 | –
CCc1n[nH]c2c(NCc3ccco3)ncnc12 [furfurylamino / ethyl] | – | – | 8.2 | > 167 | 135 | 5.3 | –
CCc1n[nH]c2c(NCC=C(C)C)ncnc12 [isopentenylamino / ethyl] | – | – | 45 | – | – | 41 | –
CC(C)=CCNc1ncnc2c(C)n[nH]c12 [isopentenylamino / methyl] | – | – | 45 | – | – | 44 | –
CCCCCNc1ncnc2c(CC)n[nH]c12 [pentylamino / ethyl] | 62 | 41 | – | – | – | – | –
CCCCCNc1ncnc2c(C)n[nH]c12 [pentylamino / methyl] | 67 | 45 | – | – | – | – | –
